In patent US20090305338A1, “Plant cell lines established from the medicinal plant veratrum californicum” (priority 2006, published 2009):

How the values were obtained:
[1] = tested on: Veratrum californicum embryos; test: Embryogenic callus induction from mature embryos (% of embryogenesis); type: cell-based
Description: (§1) Seeds of Veratrum californicum Durand were peeled, rinsed with 94% ethanol and surface sterilized with 1% (v/v) sodium hypochlorite supplemented with a few drops of Tween20 for 10 minutes, and finally rinsed three times with sterile water. Seeds were allowed to germinate for 2 days at 22° C. in the dark on moist filter paper. Embryos were excised and cultured on MS medium (11) solidified with gelrite (3% w/v) and supplemented with 1 mg/l kinetin and 1 mg/l NAA in the dark at 22° C. Produced calli were subcultured to fresh plates in two to three weeks intervals. After four months of culture calli were transferred to L2-medium (12) solidified with gelrite (3% w/v) and supplemented with 2.5 mg/l 2,4-D and were subsequentially subcultured to fresh plates at one month intervals. Embryogenic callus cultures from isolated V. californicum embryos were induced by the following media: Basal media MS (11), R2M (13), L2 (12), modified MS medium (mMS, consisting of MS basic salts and vitamins, 146 mg/l glutamine, 200 mg/l casein hydrolysate) and AA (14) supplemented with different hormones (picloram, NAA, 2,4-D, dicamba) at three levels (2, 4 and 7 mg/l) all solidified with gelrite (3% w/v). The cultures were kept in the dark, at 25° C. and embryogenic calli were subcultured at one month intervals.
Frequencies of embryos producing embryogenic calli and frequencies of regenerated green and albino plants were recorded. Oxidative browning percentages of embryos were calculated. Completely randomized designs (CRD) were used in the experiments. Each Petri-dish with 20 embryos was considered an experimental unit and each treatment contained five replicates. Data analyses with two treatment levels were carried out by t-test, and with more than two treatment levels by the ANOVA procedure. Multi-range comparisons were performed by the LSD test.

suspension line B = test: Growth optimization of the suspension cell line B; type: cell-based, Veratrum californicum; conditions: AA medium, 4 mg/l
Description: Growth of suspension line B on L2-medium with 2,4-D (2.5 mg/l) was further optimized. About 3 g (fw) of cells were transferred to an Erlenmeyer flask containing 50 ml liquid AA medium (with 2,4-D and NAA at levels of 2, 4 and 7 mg/l or without hormones), and incubated in the light (light intensity about 30-40 […] Osram cool white/Osram fluora, 1:1 on watt basis) on a rotary shaker (130 rpm) at 25° C. The volume of the liquid medium was added up to 100 ml after the second subculture. The suspensions were sub-cultured at three weeks intervals by replacing about half of the old culture with an equal volume of fresh medium.

[2] = tested on: Veratrum californicum embryos; test: Embryogenic callus induction from mature embryos (% of embryogenesis); type: cell-based; conditions: medium 502; data from 5 replicates
[3] = tested on: suspension lines A, B and C; test: Cryopreservation of the cell suspension lines A, B and C; type: cell-based, Veratrum californicum; conditions: 5% (v/v), after osmotic dehydration
Description: The suspension lines A, B and C were cryopreserved by using a Kryo10 device (Planer Biomed). The suspensions were subcultured 4 to 5 days prior to the start of the cryopreservation experiment. A dehydration procedure as follows was applied: I) Sugar alcohol concentration of the suspension was adjusted to 0.2 M by adding five times small aliquots of 4 M sorbitol during a period of 30 minutes. After sorbitol additions, the suspensions were incubated under normal growth conditions for 24 hours (in the dark, 25° C., on a rotary shaker (90 rpm)). II) Sugar alcohol concentration was adjusted to 0.4 M by 4 M sorbitol and incubations were carried out as in step I). The dehydrated suspensions were transferred to ice and DMSO was added to reach 5% (v/v) concentration. Cell:medium ratio was adjusted to 1:2 and suspensions were packed into ampulles. Protectant-treated suspensions were kept on ice for a period of 100 minutes. A freezing protocol as follows was applied: I) A rate of 10° C./min to reach 0° C. was followed by II) incubation at 0° C. for 20 minutes. The freezing was finalized by using III) a rate of 1° C./min to reach −40° C. and then IV) samples were immersed in liquid nitrogen. Thawing of cryopreserved samples was carried out by immersing the suspension ampulles straight from liquid nitrogen to a 40° C. water bath for 2 minutes. […] Cell division and growth of the cultures were monitored.

[4] = tested on: Veratrum californicum embryos; test: Phenolic exudation / oxidative browning during embryo culture; type: cell-based; conditions: mMS medium containing picloram
Description: as §1, with “The cultures were kept in the dark, at 25° C. and embryogenic calli were subcultured at one month intervals.” left out
Frequencies of embryos producing embryogenic calli and frequencies of regenerated green and albino plants were recorded. Oxidative browning percentages of embryos were calculated. […]

sheep = conditions: ewes consuming Veratrum during early pregnancy; cited from earlier work
[5] = tested on: Sonic hedgehog signal transduction; conditions: cited from earlier work
[6] = tested on: Veratrum californicum plant suspension cell lines; test: Elicitation of steroid alkaloid production in plant suspension cell lines; type: cell-based
Description: 100 μl 0.5% SDS solution and 50 μl 25% NH4OH was added to 100 mg FW frozen cell powder. After mixing 1 ml toluene was added and the solution was extracted for 10 min in an ultrasonic bath. Following centrifugation the organic layer was collected and the sample residue was twice re-extracted with another 1 ml toluene. The organic phases were combined and the solvent was evaporated to dryness. The residue was then quantitatively transferred to a GC vial and re-dissolved in 80 μl CH2Cl2. An aliquot was directly injected into the GC.
GC separation was performed using an Agilent 6890 system and was monitored with an Agilent 5973 Network MS Quadropole. The selected ion mode function was applied to record the characteristic molecular ions (cyclopamine: 124, 396; jervine: 110, 124). Within a set of samples the response values for the specific ions were used to compare relative levels of alkaloids. A mixture of commercially available reference compounds (cyclopamine and jervine) was routinely analyzed for comparison of retention times and fragmentation.

[7] = medium AA, data from 5 replicates
[8] = medium MS, data from 5 replicates
[9] = medium R2M, data from 5 replicates
[10] = medium mMS, data from 5 replicates
[11] = growth regulator 2 mg/l, average over mMS, R2M, AA
[12] = growth regulator 2 mg/l, medium AA
[13] = growth regulator 2 mg/l, medium R2M
[14] = growth regulator 2 mg/l, medium mMS
[15] = growth regulator 4 mg/l, average over mMS, R2M, AA
[16] = growth regulator 4 mg/l, medium AA
[17] = growth regulator 4 mg/l, medium R2M
[18] = growth regulator 4 mg/l, medium mMS
[19] = growth regulator 7 mg/l, average over mMS, R2M, AA
[20] = growth regulator 7 mg/l, medium AA
[21] = growth regulator 7 mg/l, medium R2M
[22] = growth regulator 7 mg/l, medium mMS

With `O=C(O)COc1ccc(Cl)cc1Cl` [2,4-D] the “% of embryogenesis, Average” value ([1]; average over the five media) was 52.33c %, the “% of embryogenesis” value [1, 7] was 43.43% and the “% of embryogenesis” value [1, 8] was 50.52%. The “% of embryogenesis” value [1, 9] was 58.85%, the “% of embryogenesis” value [1, 10] was 55.32% and the “growth of the suspension line B” value (suspension line B) was “improved the growth”. The “% of embryogenesis” value [2] was 53.41%.

In the case of `C[S+](C)[O-]` [DMSO], the cryoprotectant effect [3] is reported as “sufficient as a cryoprotectant”.

For `COc1c(Cl)ccc(Cl)c1C(=O)O` [Dicamba, dicamba], the “% of embryogenesis, Average” value ([1]; average over the five media) was 55.44bc %, the “% of embryogenesis” value [1, 7] was 51.24% and the “% of embryogenesis” value [1, 8] was 50.90%. For the same molecule, the “% of embryogenesis” value [1, 9] was 58.67%, the “% of embryogenesis” value [1, 10] was 60.79% and the “% of embryogenesis” value [2] was 55.61%.

For `O=C(O)Cc1cccc2ccccc12` [NAA, 1-naphthaleneacetic acid], the “% of embryogenesis, Average” value ([1]; average over the five media) was 67.70a %, the “% of embryogenesis, Average” value [1, 11] was 59.35b % and the “% of embryogenesis” value [1, 12] was 48.95%. The “% of embryogenesis” value [1, 13] was 63.75%, the “% of embryogenesis” value [1, 14] was 65.35% and the “% of embryogenesis, Average” value [1, 15] was 70.74a %. The “% of embryogenesis” value [1, 16] was 64.21%, the “% of embryogenesis” value [1, 17] was 74.32% and the “% of embryogenesis” value [1, 18] was 73.67%. The “% of embryogenesis, Average” value [1, 19] was 72.15a %, the “% of embryogenesis” value [1, 20] was 68.06% and the “% of embryogenesis” value [1, 21] was 73.01%. For the same molecule, the “% of embryogenesis” value [1, 22] was 75.37%, the “% of embryogenesis” value [1, 7] was 62.04% and the “% of embryogenesis” value [1, 8] was 62.62%. For the same molecule, the “% of embryogenesis” value [1, 9] was 73.95%, the “% of embryogenesis” value [1, 10] was 74.93% and the “growth of the suspension line B” value (suspension line B) was “improved the growth”. The “% of embryogenesis” value [2] was 64.98%.

In the case of `Nc1c(Cl)c(Cl)nc(C(=O)O)c1Cl` [Picloram, picloram], the “% of embryogenesis, Average” value ([1]; average over the five media) is reported as 70.82a %, the “% of embryogenesis, Average” value [1, 11] is reported as 63.24B % and the “% of embryogenesis” value [1, 12] is reported as 51.43%. For the same molecule, the “% of embryogenesis” value [1, 13] was 68.53%, the “% of embryogenesis” value [1, 14] was 69.76% and the “% of embryogenesis, Average” value [1, 15] was 72.96A %. For the same molecule, the “% of embryogenesis” value [1, 16] was 62.59%, the “% of embryogenesis” value [1, 17] was 75.73% and the “% of embryogenesis” value [1, 18] was 80.57%. For the same molecule, the “% of embryogenesis, Average” value [1, 19] was 72.50A %, the “% of embryogenesis” value [1, 20] was 59.97% and the “% of embryogenesis” value [1, 21] was 76.07%. For the same molecule, the “% of embryogenesis” value [1, 22] was 81.46%, the “% of embryogenesis” value [1, 7] was 59.75% and the “% of embryogenesis” value [1, 8] was 69.32%. For the same molecule, the “% of embryogenesis” value [1, 9] was 75.40%, the “% of embryogenesis” value [1, 10] was 81.33% and the “percentage of embryos producing phenolic exudates” value [4] was 18.9%. For the same molecule, the “% of embryogenesis” value [2] was 68.32%.

In the case of `CC1=C2C[C@H]3[C@@H](CC=C4C[C@@H](O)CC[C@@]43C)[C@@H]2CC[C@]12O[C@@H]1C[C@H](C)CN[C@H]1[C@H]2C` [cyclopamine], the teratogenicity (sheep) is given as “responsible teratogens” and the “effect on Sonic hedgehog signal transduction” value [5] is given as “selectively blocks Sonic hedgehog signal transduction”.

In the case of `CC1=C2C(=O)[C@H]3[C@@H](CC=C4C[C@@H](O)CC[C@@]43C)[C@@H]2CC[C@]12O[C@@H]1C[C@H](C)CN[C@H]1[C@H]2C` [jervine], the teratogenicity (sheep) is listed as “responsible teratogens”.

With `CC/C=C\CC1C(=O)CCC1CC(=O)OC` (centres unmarked) [methyl-jasmonate, methyl jasmonate] the “production of cyclopamine and jervine upon elicitation” value [6] was “showed the production of cyclopamine and jervine”.
